In PubChem BioAssay (NCI):
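Assay format: 96-well plates, 48-hour exposure. At the TGI there is no net growth.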

Legend:
Test in all cases: NCI-60 cell line screen, 48 h
[1] = system: KM20L2 colon
[2] = system: IGROV1 ovarian
[3] = system: SNB-78 CNS
[4] = system: EKVX NSCLC
[5] = system: U251 CNS
[6] = system: LXFL 529 NSCLC
[7] = system: HCT-116 colon
[8] = system: SNB-75 CNS
[9] = system: M19-MEL melanoma
[10] = system: HOP-62 NSCLC
[11] = system: OVCAR-8 ovarian
[12] = system: T-47D breast

| SMILES | TGI [1] [µM] | TGI [2] [µM] | TGI [3] [µM] | TGI [4] [µM] | TGI [5] [µM] | TGI [6] [µM] | TGI [7] [µM] | TGI [8] [µM] | TGI [9] [µM] | TGI [10] [µM] | TGI [11] [µM] | TGI [12] [µM] |
| --- | --- | --- | --- | --- | --- | --- | --- | --- | --- | --- | --- | --- |
| CN(C)CCC(=O)N1C/C(=C/c2ccccc2)C(=O)/C(=C\c2ccccc2)C1 | 2.89 | 7.02 | 16.1 | 12.6 | 2 | 5.51 | 1.15 | 15.1 | 2.83 | 16 | 7.58 | 17.7 |
| COc1ccc(CNc2cc(OC)c(OC)c(OC)c2)cc1 | > 23.7 | > 100 | 32.9 | 98.9 | 24.3 | > 100 | > 42.4 | 97.1 | > 100 | > 71.5 | > 100 |  |
| CC1(C)CC(/C=C2/OC(=O)c3ccccc32)=C(C#N)C(=O)O1 | > 100 | > 100 | > 100 | > 100 | > 100 | > 100 | > 100 | > 100 | > 100 | > 100 | > 100 |  |
| CCCCN(CCCC)C(=O)C(=O)C(C#N)c1ccc(C)cc1 (configuration not stated) | > 100 | > 100 | > 100 | > 100 | > 100 | > 100 | > 100 | > 100 | > 100 | > 100 | > 100 |  |
| CC1OC(n2cc(F)c(=O)[nH]c2=O)CCC1O (configuration not stated) | > 100 | > 100 | > 100 | > 100 | > 100 | > 100 | > 100 | > 100 | > 100 | > 100 | > 100 | > 100 |
| Cc1cc(N(CCOS(C)(=O)=O)CCOS(C)(=O)=O)ccc1C=Nc1ccc(-c2nc(Cc3ccccc3)sc2C)cc1 | 21.2 | 28 | 81.2 | 15.8 | 22.8 | > 50.3 | 35 | 12.3 | 24.3 | 20.8 | 41.8 | 23.8 |
| Cc1nc2c(nc1Cl)nc(Oc1ccc(Cl)cc1)c1ccccc12 | > 100 | > 100 | > 100 | > 100 | 40.6 | > 100 | > 100 | > 100 | > 100 | 84.1 | 68.2 |  |
| CCCCCCCCCCCCCC(=O)OC1CC(=O)OC1CO (configuration not stated) | > 100 | > 100 | > 100 | > 100 | > 100 | > 100 | > 100 | > 100 | > 100 | > 100 | > 100 |  |
| Clc1ccc(C2N3CCCCC3[C@@H]3c4[nH]c5ccccc5c4CCN23)cc1 (some centres not stated) | 96.5 | > 100 | > 100 | > 100 | > 100 | > 100 | > 100 | > 100 | 94.7 | > 100 | > 100 |  |
